Data set [1] relates to Alzheimer's disease and related dementia (ADRD) in rheumatoid arthritis patients. The experiment in a line: Medicare claims cohort study of incident ADRD, HCQ vs methotrexate. In kind it is in vivo, human. An excerpt: The full study protocol for patient-level analysis in Medicare claims was pre-registered on clinicaltrials.gov prior to data analysis (NCT04691505) and contains detailed information on implementation including all codes that were used to identify study variables to allow future replication. The following sections summarize key methodologic details. Data source: Medicare Fee-For-Service claims data from 2007 through 2017 were used. Medicare Part A (hospitalizations), B (medical services), and D (prescription medications) claims are available for research purposes through the Centers for Medicare and Medicaid Services. A signed data use agreement with the CMS was available and the Brigham and Women's Hospital's Institutional Review Board approved this study. Study cohort: A new user, active comparator, observational cohort study design comparing methotrexate to hydroxychloroquine was employed. The patients were required to have continuous enrollment in Medicare parts A, B, and D during the baseline period of 365 days before initiation date of methotrexate or hydroxychloroquine, which was defined as the cohort entry date. Patients were required to have ≥1 diagnosis codes of rheumatoid arthritis during the baseline period but no prior use of any disease modifying antirheumatic treatments. Patients with existing diagnosis of Alzheimer's disease and related dementia (ADRD) any time prior to and including cohort entry date were excluded to focus on incident events. Patients with nursing home admission in 365 days prior to and including cohort entry date also were excluded as medication records for short nursing home stays are unavailable in Medicare claims. Outcome measurement: The endpoint of ADRD was identified based on diagnosis codes, recorded on 1 inpatient claim or 2 outpatient claims, of Alzheimer's disease, vascular dementia, senile, presenile, or unspecified dementia, or dementia in other diseases classified elsewhere. […] Alternative analytic approaches: To accommodate various uncertainties involved in pharmacoepidemiologic investigations focused on ADRD risk, the following alternative analyses were employed. Analysis 1—‘As-treated’ follow-up approach: In this approach, the follow-up started on the day following the cohort entry date and continued until treatment discontinuation or switch (to comparator treatment), insurance disenrollment, death, or administrative endpoint (December 2017). A 90-day ‘grace period’ after the end of the expected days-supply of the most recently filled prescription was considered to define the treatment discontinuation date to accommodate for suboptimal adherence during treatment periods. […] This follow-up approach addresses concerns related to informative censoring if patients discontinue or if physicians de-prescribe the treatments under consideration because of memory problems associated with ADRD, but the diagnosis is not recorded in the electronic healthcare records until after the end of follow-up due to treatment-related censoring. Analysis 3—incorporating a 6-month ‘symptoms to diagnosis’ period: In this approach, an outcome date was assigned that was 6 months before the first recorded ADRD date and excluded last 6 months of follow-up for those who are censored without an event to account for the possibility that ADRD symptoms likely appear some time before a formal diagnosis is recorded in insurance records, which leads to misclassification of ADRD onset. […]

For data set [2] the following is noted: in vivo; cited from earlier work.
Data set [3] deals with STAT3 (Mus musculus, UniProt P42227). The experiment in a line: Western blot of p-STAT3 in BV-2 phenotypic assays (Aβ1-42 clearance, LPS). In kind it is cell-based. The following applies: 25 μM. The protocol:
Western blot analyses: Samples for western blot analyses were prepared from 3 assays which provided evidence of HCQ-associated rescue (i.e., Ab1-42 clearance, tau phosphorylation, and LPS-induced neuroinflammation). Samples were prepared identically as described above in section: Effect of HCQ on AD-related phenotypes in cell culture, and scaled up to 24-well format to allow for adequate sample volume. After HCQ treatment, cells were washed once with PBS and harvested in 50 μl 50 mM HEPES+2% SDS lysis buffer. The extracts were then boiled at 95° C. for 5 mins. Analytic methods were identical to those described above in Example 4.
Statistical analyses: Statistical analysis was performed using STATA 16.1. Group differences were evaluated using two-sample t-tests (parametric) to calculate differences in p-STAT3 levels between HCQ treated and control samples. We additionally used the Wilcoxon rank-sum test (non-parametric) to confirm that results were robust to distributional assumptions. Significant differences were indicated as p<0.05.
For orientation: In western blotting, separated proteins are transferred to a membrane and probed.

Data set [4] has as its system Primary hippocampal neurons. The experiment in a line: Aβ toxicity assay. In kind it is cell-based, mouse. The following applies: HCQ 25, 2.5 or 0.25 μM. The procedure: Aβ toxicity: Primary hippocampal neurons were prepared from E18.5 timed pregnant C57BL/6JRccHsd mice as previously described. Cells were seeded in poly-D-lysine pre-coated 96-well plates at a density of 4×10^4 cells/well and cultivated until DIV10 (Neurobasal, 2% B-27, 0.5 mM glutamine, 25 μM glutamate, 1% Penicillin-Streptomycin). On DIV10 pre-aggregated Aβ1-42 (Bachem 4061966, final concentration 10 μM, 48 h at 4° C.) was added to the cells in the presence or absence of Hydroxychloroquine sulfate (TargetMol, T0951) at 25 μM, 2.5 μM or 0.25 μM concentrations. On DIV16 cells were subject to MTT assay to determine cell viability.

Chain of STAT3 (P42227 whole entry): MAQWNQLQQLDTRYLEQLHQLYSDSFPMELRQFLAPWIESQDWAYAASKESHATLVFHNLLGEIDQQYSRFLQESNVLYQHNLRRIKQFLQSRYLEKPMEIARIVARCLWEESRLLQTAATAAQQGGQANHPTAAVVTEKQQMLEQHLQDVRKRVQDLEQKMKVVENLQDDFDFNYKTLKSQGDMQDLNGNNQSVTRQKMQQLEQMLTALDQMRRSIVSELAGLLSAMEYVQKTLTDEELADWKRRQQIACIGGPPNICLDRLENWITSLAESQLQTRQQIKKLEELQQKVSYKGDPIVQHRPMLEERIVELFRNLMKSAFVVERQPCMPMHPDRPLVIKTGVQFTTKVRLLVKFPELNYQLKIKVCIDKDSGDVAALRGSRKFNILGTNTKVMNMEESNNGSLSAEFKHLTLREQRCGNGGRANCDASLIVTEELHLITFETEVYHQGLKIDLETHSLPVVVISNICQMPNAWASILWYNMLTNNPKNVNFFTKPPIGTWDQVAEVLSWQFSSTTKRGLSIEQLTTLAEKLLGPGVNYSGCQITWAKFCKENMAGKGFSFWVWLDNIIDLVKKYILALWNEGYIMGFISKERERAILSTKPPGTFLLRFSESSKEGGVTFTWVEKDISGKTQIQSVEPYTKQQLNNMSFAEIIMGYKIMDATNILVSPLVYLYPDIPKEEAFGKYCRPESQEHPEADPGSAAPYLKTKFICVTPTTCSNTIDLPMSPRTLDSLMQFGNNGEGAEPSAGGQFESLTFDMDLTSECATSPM

With `CCN(CCO)CCCC(C)Nc1ccnc2cc(Cl)ccc12` (stereo not drawn) [HCQ, hydroxychloroquine], the “lower risk of ADRD” value in data set [1] (Analysis 1, as-treated, vs MTX initiators) is on record as 8%; in data set [1] (Analysis 2, as-started, 6-month induction period), 13%; in data set [1] (Analysis 3, 6-month symptom to claims period), 16%. Besides, the “cumulative incidence of ADRD” value in data set [1] (after approximately 2 years of treatment, compared to MTX, all four analyses) is on record as “lower cumulative incidence”. Also, the “lowering of incident AD” value in data set [1] (relative to methotrexate, across analyses) was 8-16%. In data set [2], the “serious side effects of retinopathy and cardiac toxicity” value was “relatively rare”. For the same compound, the “p-STAT3 (Tyr705)” value in data set [3] (Aβ1-42 clearance assay, relative to VC) is listed as “lowered”; in data set [3] (LPS-induced neuroinflammation assay, vs VC), “significantly lower”. For the same compound, the “toxicity due to exogenous Aβ” value in data set [4] is “no effects”.

Values taken from patent publication US20240269128A1, “COMPOUNDS FOR TREATING OR PREVENTING ALZHEIMER'S DISEASE” (THE UNITED STATES OF AMERICA, as represented by the …, priority 2021, published 2024).
